Assay results taken from ChEMBL document CHEMBL1201862, “PubChem BioAssay data set” (2004).
Activity calls are given as the source filed them. For most assays here, no stated cut-off is given here; in the data, actives have a measured EC50 and inactives only a lower limit.

What was measured:
[1] = NIH-3T3 fibroblast cytotoxicity, dose response, cytotoxicity control, cell-based, fluorescence, Alamar Blue, secondary assay (AID 2327); assay type: functional;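 further: NIH-3T3 mouse fibroblasts cultured with fluconazole at 8 µg/mL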
[2] = target: ATP-dependent molecular chaperone HSP82 (Candida albicans (strain WO-1) (Yeast), UniProt C4YTQ8); experiment: loss of DOC-induced GRE-beta-galactosidase reporter signal, dose response, Hsp90 inhibitor project, S. cerevisiae, luminescence (AID 2400); assay type: functional, cell-based;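 further: beta-galactosidase luminescence from glucocorticoid response element reporter as proxy for Hsp90 function; inhibitor potency where signal loss means Hsp90 inhibition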
ATP-dependent molecular chaperone HSP82, sequence (C4YTQ8 whole entry): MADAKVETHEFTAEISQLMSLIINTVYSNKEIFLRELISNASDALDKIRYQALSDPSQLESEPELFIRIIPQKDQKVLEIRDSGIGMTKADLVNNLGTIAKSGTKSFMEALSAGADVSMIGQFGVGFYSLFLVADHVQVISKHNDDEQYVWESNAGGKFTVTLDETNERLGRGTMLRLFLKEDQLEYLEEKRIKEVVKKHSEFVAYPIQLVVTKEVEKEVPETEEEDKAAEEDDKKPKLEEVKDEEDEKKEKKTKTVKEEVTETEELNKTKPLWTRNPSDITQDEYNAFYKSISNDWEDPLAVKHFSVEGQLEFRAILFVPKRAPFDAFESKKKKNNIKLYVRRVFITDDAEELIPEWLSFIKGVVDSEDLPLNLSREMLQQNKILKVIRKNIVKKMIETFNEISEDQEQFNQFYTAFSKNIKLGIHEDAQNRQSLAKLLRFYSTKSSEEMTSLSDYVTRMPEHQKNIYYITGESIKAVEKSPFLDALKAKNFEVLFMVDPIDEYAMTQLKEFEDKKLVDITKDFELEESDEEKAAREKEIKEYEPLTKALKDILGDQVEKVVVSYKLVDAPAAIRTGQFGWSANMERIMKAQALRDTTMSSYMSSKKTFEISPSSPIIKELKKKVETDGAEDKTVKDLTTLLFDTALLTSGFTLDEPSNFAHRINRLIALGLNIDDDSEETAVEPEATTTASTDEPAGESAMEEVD

[3] = C. albicans growth with fluconazole, confirmation, fluorescence, retest (AID 2467); assay type: functional, cell-based
[4] = target: T1, Serine/threonine-protein phosphatase (Candida dubliniensis (strain CD36 / CBS 7987 / NCPF 3949 / NRRLY-17841) (Yeast), UniProt B9W6M3); experiment: calcineurin pathway inhibitors in yeast reporter, dose response, S. cerevisiae, CDRE-lacZ, luminescence, secondary (AID 2388); assay type: functional, cell-based;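 further: yeast reporter cells carrying a calcineurin-responsive lacZ construct stimulated with calcium chloride; luminescent beta-galactosidase reporter signal in whole cells rather than isolated phosphatase activity; potency for inhibition where a drop in reporter signal means calcineurin blockade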
T1 sequence (B9W6M3 whole entry): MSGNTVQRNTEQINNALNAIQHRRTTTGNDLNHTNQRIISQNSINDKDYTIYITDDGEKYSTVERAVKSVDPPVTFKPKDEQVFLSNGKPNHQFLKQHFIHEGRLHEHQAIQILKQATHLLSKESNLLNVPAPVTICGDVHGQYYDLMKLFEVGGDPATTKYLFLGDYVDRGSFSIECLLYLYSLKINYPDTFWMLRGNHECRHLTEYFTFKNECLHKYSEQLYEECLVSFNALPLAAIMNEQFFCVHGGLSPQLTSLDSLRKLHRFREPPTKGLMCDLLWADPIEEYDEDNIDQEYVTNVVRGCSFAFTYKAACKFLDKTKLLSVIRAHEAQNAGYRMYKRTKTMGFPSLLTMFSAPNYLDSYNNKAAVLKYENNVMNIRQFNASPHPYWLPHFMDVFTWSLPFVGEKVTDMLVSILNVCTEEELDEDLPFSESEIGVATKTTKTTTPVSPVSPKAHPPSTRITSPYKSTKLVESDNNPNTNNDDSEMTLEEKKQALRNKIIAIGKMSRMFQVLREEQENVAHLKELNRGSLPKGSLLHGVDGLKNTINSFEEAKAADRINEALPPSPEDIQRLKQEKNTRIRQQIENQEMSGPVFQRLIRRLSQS

[5] = tested on: INS1; experiment: beta cell apoptosis inhibitors, cytokine rescue, dose response, luminescence, retest (AID 449756); assay type: functional, cell-based; conditions: Rattus norvegicus;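 further: cell death triggered by IL-1 beta plus TNF-alpha plus IFN-gamma mixture; protective hits raise ATP signal compared with cytokine alone wells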
[6] = target: Heat shock protein HSP 90-alpha (Homo sapiens, UniProt P07900); assay type: functional, organism-based
[7] = cells; assay type: functional, cell-based
[8] = cells; assay type: functional, cell-based; remark: listed apart in the source
[9] = tested on: BJ; experiment: cells; assay type: functional, cell-based; conditions: Homo sapiens
[10] = tested on: BJ; experiment: cytotoxicity toward BJ-TERT-LT-ST fibroblasts, dose response, cell-based, RAS-independent, luminescence (AID 1935); assay type: functional; conditions: Homo sapiens;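 further: BJ fibroblasts immortalized with TERT plus LT and ST oncogenes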
[11] = tested on: BJ; experiment: cytotoxicity toward Ras-transformed BJeLR fibroblasts, dose response, cell-based, alamar blue fluorescence, cherrypicked samples (AID 2631); assay type: functional; conditions: Homo sapiens;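 further: confirmatory dose-response assay in RAS-dependent BJ fibroblasts engineered with TERT, LT and ST, with cytotoxicity read by fluorescence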
[12] = cytotoxicity in HEK-293T cells, dose response, cytotoxicity control for TCR NF-kB inhibitor project, luminescence, T-cell screen hits (AID 489026); assay type: functional, cell-based;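 further: cells exposed to compound about 14 hours before the viability readout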
[13] = Luminescence Cell-Based Dose Response HTS to Identify Inhibitors of 5'UTR Stem-Loop Driven Prion Protein mRNA Translation in H4 Neuroglioblastoma Cells. [Related pubchem assays: 1827 (Project Summary), 1813 (Primary HTS)]; assay type: functional
[14] = cytotoxicity toward DRD oncogenic fibroblasts, dose response, cell-based, non-viral oncogenic, luminescence (AID 1934); assay type: functional; conditions: Homo sapiens
[15] = tested on: BJ; experiment: cytotoxicity toward BJ-TERT fibroblasts, dose response, cell-based, RAS-independent, luminescence (AID 1933); assay type: functional; conditions: Homo sapiens
[16] = inhibitors of firefly luciferase expression or activity, dose response, H4 neuroglioma cells, luminescence (AID 1990); assay type: functional, cell-based
[17] = inhibitors of SNCA 5'UTR-driven reporter translation, confirmation, H4 neuroglioma cells, luminescence (AID 1988); assay type: functional, cell-based
[18] = M. tuberculosis H37Rv growth inhibitors, H37Rv strain (AID 1626); assay type: functional
[19] = target: T2, Type-1 angiotensin II receptor (Homo sapiens, UniProt P30556); experiment: AT1 receptor antagonists, dose response, selectivity assay for APJ receptor antagonist project, cell-based, uHTS hits (AID 463214); assay type: functional;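 further: antagonist potency against angiotensin II stimulated AT1 response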
T2 sequence (P30556 whole entry): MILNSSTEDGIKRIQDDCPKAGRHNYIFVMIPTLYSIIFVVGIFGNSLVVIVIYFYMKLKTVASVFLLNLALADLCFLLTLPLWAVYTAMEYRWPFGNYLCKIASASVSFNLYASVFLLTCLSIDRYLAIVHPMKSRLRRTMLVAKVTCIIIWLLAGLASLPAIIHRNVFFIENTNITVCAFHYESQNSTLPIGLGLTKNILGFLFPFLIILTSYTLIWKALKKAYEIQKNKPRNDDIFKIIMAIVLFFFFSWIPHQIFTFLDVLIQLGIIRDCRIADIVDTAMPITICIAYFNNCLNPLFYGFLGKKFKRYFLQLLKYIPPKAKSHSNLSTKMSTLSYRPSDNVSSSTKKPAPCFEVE

[20] = target: Beta-galactosidase (Escherichia coli, UniProt Q8VNN2); experiment: PubChem AID 485352; assay type: functional
Beta-galactosidase, sequence (Q8VNN2 whole entry): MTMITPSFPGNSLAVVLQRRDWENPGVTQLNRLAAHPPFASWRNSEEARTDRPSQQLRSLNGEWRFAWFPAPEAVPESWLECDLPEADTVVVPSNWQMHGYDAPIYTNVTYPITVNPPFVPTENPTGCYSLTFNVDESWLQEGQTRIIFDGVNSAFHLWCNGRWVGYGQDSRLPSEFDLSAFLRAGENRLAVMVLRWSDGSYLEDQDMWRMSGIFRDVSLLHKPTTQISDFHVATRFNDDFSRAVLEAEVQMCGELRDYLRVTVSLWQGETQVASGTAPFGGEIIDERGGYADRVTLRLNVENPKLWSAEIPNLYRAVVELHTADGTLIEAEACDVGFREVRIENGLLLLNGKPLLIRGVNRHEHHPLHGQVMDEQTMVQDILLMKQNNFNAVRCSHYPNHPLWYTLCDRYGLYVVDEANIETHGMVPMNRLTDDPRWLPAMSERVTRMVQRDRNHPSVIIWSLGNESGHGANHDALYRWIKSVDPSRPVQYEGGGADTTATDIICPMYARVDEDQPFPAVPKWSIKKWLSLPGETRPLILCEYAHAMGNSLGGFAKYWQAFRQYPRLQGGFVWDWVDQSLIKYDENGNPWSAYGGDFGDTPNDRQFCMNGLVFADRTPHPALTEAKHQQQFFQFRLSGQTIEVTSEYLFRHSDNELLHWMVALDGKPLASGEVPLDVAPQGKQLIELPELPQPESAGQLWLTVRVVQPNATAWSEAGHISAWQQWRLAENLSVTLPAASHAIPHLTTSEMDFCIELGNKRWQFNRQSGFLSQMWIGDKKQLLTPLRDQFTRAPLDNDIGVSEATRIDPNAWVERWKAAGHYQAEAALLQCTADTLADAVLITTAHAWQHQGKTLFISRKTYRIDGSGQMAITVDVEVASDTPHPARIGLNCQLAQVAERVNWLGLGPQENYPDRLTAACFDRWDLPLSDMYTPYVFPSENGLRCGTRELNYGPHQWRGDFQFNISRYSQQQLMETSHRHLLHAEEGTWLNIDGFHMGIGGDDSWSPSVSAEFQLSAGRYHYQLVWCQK

[21] = target: Voltage-gated inwardly rectifying potassium channel KCNH2 (Homo sapiens, UniProt Q12809); conditions: Potency;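 further: confirmatory quantitative high-throughput screen measuring inhibition of hERG channel activity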
Voltage-gated inwardly rectifying potassium channel KCNH2, sequence (Q12809 whole entry): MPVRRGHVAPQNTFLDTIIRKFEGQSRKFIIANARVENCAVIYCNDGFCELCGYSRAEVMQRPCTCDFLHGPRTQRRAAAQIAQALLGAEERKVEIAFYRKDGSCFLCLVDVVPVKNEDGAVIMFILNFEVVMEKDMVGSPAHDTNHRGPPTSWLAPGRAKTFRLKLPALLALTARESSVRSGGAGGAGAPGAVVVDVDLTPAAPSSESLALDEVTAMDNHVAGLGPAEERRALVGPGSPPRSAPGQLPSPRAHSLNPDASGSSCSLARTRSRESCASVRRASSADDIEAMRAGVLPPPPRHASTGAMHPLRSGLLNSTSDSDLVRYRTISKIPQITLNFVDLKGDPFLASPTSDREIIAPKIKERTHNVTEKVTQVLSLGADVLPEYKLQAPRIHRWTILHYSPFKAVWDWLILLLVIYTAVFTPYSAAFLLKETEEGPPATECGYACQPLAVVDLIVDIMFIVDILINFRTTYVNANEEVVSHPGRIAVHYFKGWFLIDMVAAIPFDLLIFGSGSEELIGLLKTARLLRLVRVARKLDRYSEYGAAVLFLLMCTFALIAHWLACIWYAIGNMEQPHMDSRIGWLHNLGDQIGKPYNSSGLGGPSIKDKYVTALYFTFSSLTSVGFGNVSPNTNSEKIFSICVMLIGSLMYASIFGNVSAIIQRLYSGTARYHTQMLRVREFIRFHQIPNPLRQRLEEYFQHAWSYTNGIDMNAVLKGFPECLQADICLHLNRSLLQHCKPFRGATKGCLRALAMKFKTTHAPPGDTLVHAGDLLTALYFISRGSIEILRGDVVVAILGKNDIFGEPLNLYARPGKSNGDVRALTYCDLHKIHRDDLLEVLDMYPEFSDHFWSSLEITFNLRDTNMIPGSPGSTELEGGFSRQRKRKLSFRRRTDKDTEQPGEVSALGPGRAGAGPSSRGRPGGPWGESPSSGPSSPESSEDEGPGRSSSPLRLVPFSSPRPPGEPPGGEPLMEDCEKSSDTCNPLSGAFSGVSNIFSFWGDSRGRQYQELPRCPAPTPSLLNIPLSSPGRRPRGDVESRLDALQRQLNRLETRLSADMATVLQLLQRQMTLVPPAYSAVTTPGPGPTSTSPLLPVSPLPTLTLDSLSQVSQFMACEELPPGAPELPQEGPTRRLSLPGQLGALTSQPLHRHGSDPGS

CNC(=O)Nc1cc(C(F)(F)F)cc(C(F)(F)F)c1
EC50 [1]: > 150 µM (inactive) | EC50 [2]: > 150 µM (inactive) | EC50 [3]: 1.34 µM (active) | EC50 [4]: > 180 µM (inactive)

COc1cccc(/C=N/NC(=O)C(=O)Nc2ccccc2OC(F)(F)C(F)F)c1O
EC50 [1]: > 160 µM (inactive) | AC50 [5]: 2.77 µM (active) | AC50 [6]: 4.2 µM (active) | EC50 [2]: 10.6 µM (active) | EC50 [7]: > 350 µM (not active) | EC50 [8]: 92.8 µM (active) | EC50 [3]: 0.46 µM (active) | EC50 [4]: > 180 µM (inactive)

O=C(N/N=C/c1ccccc1Cl)c1[nH]c2ccc(Br)cc2c1-c1ccccc1
EC50 [9]: 27.5 µM (active) | EC50 [10]: 0.748 µM (inconclusive) | EC50 [11]: 0.2 µM (active) | IC50 [12]: > 80 µM (inactive) | EC50 [13]: 0.136 µM (active) | EC50 [14]: 0.615 µM (active) | EC50 [15]: 0.608 µM (active) | EC50 [16]: 0.304 µM (active) | EC50 [17]: 0.163 µM (active)

COc1ccc(/N=C2/C(=O)N3c4c(cccc42)C(C)=CC3(C)C)cc1
IC50 [18]: > 100 µM (active) | IC50 [19]: > 40 µM (not active) | EC50 [20]: > 40 µM (inactive)

Cc1cc(C(C)(C)C)c(O)c(C(C)(C)C)c1 [BUTYLATED HYDROXYTOLUENE]
AC50 [21]: 11.2 µM (inconclusive)

c1ccc(NNc2ccccc2)cc1 [HYDRAZOBENZENE]
AC50 [21]: 35.5 µM (inconclusive)
